Where two headings read alike, the source gives them in different places.
Columns and labels:
41McisR6 cells [1] = experiment: SRB cytotoxicity assay, 41McisR6; type: cell-based, human; settings: acquired cisplatin-resistant line versus parent
[2] = target: T1, calmodulin-dependent cyclic AMP phosphodiesterase (Homo sapiens, UniProt P0DP23); experiment: Inhibition of calmodulin-dependent cyclic AMP phosphodiesterase; type: biochemical; settings: unpublished data of the authors
Description: (§1) Sary Pyroidno-4-iodotamoxifen (idoxifene) is a new non-steroidal antioestrogen currently undergoig phase I clnical evaluation. […] One agent that has featured in studies of both doxorubicin and cilatin resist- ance has been the extensively used antioestrogen tamoxifen. […] Tlhe purposes of this study were 3-fold. Initially, using a series of tamoxifen analogues of known inhibitory constants for calmodulin, the effect of increasing calmodulin inhibition on cytotoxicity against four human ovarian carcnoma cell lines was determined. […] Materials and mehod Drugs and chemicals The structures of tamoxifen and the various analogues of tamoxifen used are illustrated in Figure 1. […] Calmidazolium (R24571), Correspondence: L.R. Kelland, Drug Development Section, The Institute of Cancer Research, Block E, 15 Cotswold Road, Sutton, Surrey SM2 5NG, UK. […] Cytotoxicity data were then fitted to regression lines, and the concentration of each drug which produced a given level of cytotoxicity (fractional effect, Fa) alone or in combination was determined. Combination index (CI) for a given Fa was calculated as: CI = d' + td D-1 + D2 where DI and D2 are the doses of drugs 1 and 2, which by themselves produce a given Fa (i.e. IC5o); d' and d2 are the doses which produce the same Fa in combination. […]

CH1cisR6 cells [3] = settings: acquired cisplatin-resistant line versus parent
CH1cisR6 cells [4] = experiment: Intracellular platinum accumulation (flameless atomic absorption), CH1cisR6; type: cell-based, human; settings: 2 h exposure to cisplatin alone or with 2 microM idoxifene
Description: as §1

[5] = target: T1, calmodulin-dependent cyclic AMP phosphodiesterase; set-up: method as in Rowlands et al., 1990; settings: values taken from previous determinations; ref Rowlands et al., 1990; read-out: calmodulin IC50 (inhibition of calmodulin-dependent cyclic AMP phosphodiesterase); cited from earlier work
CH1 cells [6] = experiment: DNA interstrand cross-link repair by alkaline elution, CH1; type: cell-based, human
Description: as §1

[7] = system: four human ovarian carcinoma cell lines; experiment: cells; settings: read-out: mean IC50 across four human ovarian carcinoma cell lines (cytotoxicity)
Description: as §1

CH1cisR6 cells [8] = experiment: DNA interstrand cross-link repair by alkaline elution, CH1cisR6; type: cell-based, human
Description: as §1

[9] = system: human ovarian carcinoma cell lines; experiment: Highest non-toxic concentration of the resistance modifiers, preliminary experiments; type: cell-based; settings: <10% cell kill in any one cell line; continuous drug exposure
Description: as §1

41McisR6 cells [10] = experiment: Intracellular platinum accumulation (flameless atomic absorption), 41McisR6; type: cell-based, human; settings: 2 h exposure to cisplatin alone or with 2 microM idoxifene
Description: as §1

CH1 cells [11] = experiment: SRB cytotoxicity assay, CH1; settings: Homo sapiens, CH1, read-out: 96 h IC50, doxorubicin cytotoxicity, CH1
CH1doxR cells = experiment: SRB cytotoxicity assay, CH1doxR; settings: for Rf, resistance factor (IC50 resistant line/IC50 parent line), CH1doxR/CH1: doxorubicin resistance
Description: (§2) Sary Pyroidno-4-iodotamoxifen (idoxifene) is a new non-steroidal antioestrogen currently undergoig phase I clnical evaluation. […] One agent that has featured in studies of both doxorubicin and cilatin resist- ance has been the extensively used antioestrogen tamoxifen. […] Tlhe purposes of this study were 3-fold. Initially, using a series of tamoxifen analogues of known inhibitory constants for calmodulin, the effect of increasing calmodulin inhibition on cytotoxicity against four human ovarian carcnoma cell lines was determined. […] Materials and mehod Drugs and chemicals The structures of tamoxifen and the various analogues of tamoxifen used are illustrated in Figure 1. […] Calmidazolium (R24571), Correspondence: L.R. Kelland, Drug Development Section, The Institute of Cancer Research, Block E, 15 Cotswold Road, Sutton, Surrey SM2 5NG, UK. […] Briefly, the analysis compares the effects of drug combinations to the effects of individual drugs across the entire dose-effect range. Cytotoxicity data were then fitted to regression lines, and the concentration of each drug which produced a given level of cytotoxicity (fractional effect, Fa) alone or in combination was determined. Combination index (CI) for a given Fa was calculated as: CI = d' + td D-1 + D2 where DI and D2 are the doses of drugs 1 and 2, which by themselves produce a given Fa (i.e. IC5o); d' and d2 are the doses which produce the same Fa in combination. CI= I indicates zero interaction (additive cytotoxicity), CI <I indicates synergy and CI> 1 indicates antagonism (Chou computer program, Biosoft). […] All cell lines were grown as monolayers in Dulbecco's modified Eagle medium (DMEM) supplemented with 10% heat-iactivated fetal calf serum (Imperial Laboratores, Andover, UK), 50 gml-' gentamic 2.5 jg ml-' ampho- tericin B, 2 mM L-glutmie 10 jag ml- insulin and 0.5 jgmml' hydrocorisone in a 10% carbon dioxide, 90% air atmosphere. […] Assssment of cytotoxicity Tamoxifen and the analogues of tamoxifen were dissolved immediately before use in absolute ethanol at 20 mM. […]

41MdoxR cells = experiment: SRB cytotoxicity assay, 41MdoxR; settings: for Rf, resistance factor (IC50 resistant line/IC50 parent line), 41MdoxR/41M: doxorubicin resistance
Description: as §2

41M cells = experiment: SRB cytotoxicity assay, 41M; settings: Homo sapiens, read-out: 96 h IC50, doxorubicin cytotoxicity, 41M
Description: as §1

[12] = after 2 h cisplatin 25 microM, removal in presence of 2 microM idoxifene
[13] = after 2 h exposure to cisplatin 25 microM, removed at 2 h versus 5 h (so in the source)

## CC/C(=C(/c1ccc(OCCN(C)C)cc1)c1cccc(O)c1)c1ccccc1 [3-hydroxytamoxifen]
41McisR6 cells [1]
  Rf, resistance factor (IC50 resistant line/IC50 parent line), 41McisR6/41M: < 1
[2]
  IC50: 13000 nM
CH1cisR6 cells [3]
  Rf, resistance factor (IC50 resistant line/IC50 parent line), CH1cisR6/CH1: < 1

## CC/C(=C(\c1ccc(I)cc1)c1ccc(OCCN2CCCC2)cc1)c1ccccc1 [idoxifene, Pyrrolidino-4-iodotamoxifen]
CH1cisR6 cells [4]
  effect on platinum uptake, CH1cisR6: no difference in uptake
[5]
  IC50: 1400 nM
CH1 cells [6]; [12]
  effect on rate of DNA interstrand cross-link (ISC) removal, CH1: did not markedly affect
[7]
  IC50: 4500 nM
41McisR6 cells [1]
  Rf, resistance factor (IC50 resistant line/IC50 parent line), 41McisR6/41M: < 1
CH1cisR6 cells [8]; [12]
  effect on rate of DNA interstrand cross-link (ISC) removal, CH1cisR6: did not markedly affect
[9]
  highest non-toxic concentration: 2 µM
41McisR6 cells [10]
  effect on platinum accumulation, 41McisR6: no significant difference
CH1cisR6 cells [3]
  Rf, resistance factor (IC50 resistant line/IC50 parent line), CH1cisR6/CH1: < 1

## N.N.[Cl][Pt][Cl] [cisplatin, cis-diamminedichloroplatinum (II)]
CH1 cells [6]; [13]
  removal of cross-links, CH1: 15%
CH1cisR6 cells [8]; [13]
  removal of cross-links, CH1cisR6: 90%

## Clc1ccc(C(c2ccc(Cl)cc2)n2cc[n+](CC(OCc3ccc(Cl)cc3Cl)c3ccc(Cl)cc3Cl)c2)cc1 (stereo not drawn) [calmidazolium]
41McisR6 cells [1]
  Rf, resistance factor (IC50 resistant line/IC50 parent line), 41McisR6/41M: < 1
CH1cisR6 cells [3]
  Rf, resistance factor (IC50 resistant line/IC50 parent line), CH1cisR6/CH1: < 1

## CC/C(=C(/c1ccc(I)cc1)c1ccc(OCCN(C)C)cc1)c1ccccc1 [4-iodotamoxifen]
41McisR6 cells [1]
  Rf, resistance factor (IC50 resistant line/IC50 parent line), 41McisR6/41M: < 1
CH1cisR6 cells [3]
  Rf, resistance factor (IC50 resistant line/IC50 parent line), CH1cisR6/CH1: < 1

## CC/C(=C(\c1ccccc1)c1ccc(OCCN(C)C)cc1)c1ccccc1 [tamoxifen]
[7]
  IC50: 6300 nM
41McisR6 cells [1]
  Rf, resistance factor (IC50 resistant line/IC50 parent line), 41McisR6/41M: < 1
[9]
  highest non-toxic concentration: 4 µM
CH1cisR6 cells [3]
  Rf, resistance factor (IC50 resistant line/IC50 parent line), CH1cisR6/CH1: < 1

## COc1cccc2c1C(=O)c1c(O)c3c(c(O)c1C2=O)C[C@@](O)(C(=O)CO)C[C@@H]3O[C@H]1C[C@H](N)[C@H](O)[C@H](C)O1 [doxorubicin]
CH1 cells [11]
  IC50: 5.3 nM
CH1doxR cells; Homo sapiens, read-out: 96 h IC50, doxorubicin cytotoxicity, CH1doxR
  IC50: 460 nM
CH1doxR cells
  Rf, resistance factor (IC50 resistant line/IC50 parent line), CH1doxR/CH1: ~90
CH1doxR cells; listed as Doxorubicin
  Rf, resistance factor (IC50 resistant line/IC50 parent line), CH1doxR/CH1: 87
41MdoxR cells; Homo sapiens, read-out: 96 h IC50, doxorubicin cytotoxicity, 41MdoxR
  IC50: 280 nM
41MdoxR cells
  Rf, resistance factor (IC50 resistant line/IC50 parent line), 41MdoxR/41M: approximately 7
41MdoxR cells; listed as Doxorubicin
  Rf, resistance factor (IC50 resistant line/IC50 parent line), 41MdoxR/41M: 7.2
41M cells
  IC50: 39 nM

From PMC2033360, “Effects of a new antioestrogen, idoxifene, on cisplatin- and doxorubicin-sensitive and -resistant human ovarian carcinoma cell lines” (British Journal of Cancer, 1994)
